Tests used:
uPA = target: T1, uPA (Homo sapiens, UniProt P00749); assay: fluorometric enzyme inhibition assay, uPA (Z-Gly-Gly-Arg-AMC); format: biochemical; conditions: for Ki: from IC50 by Cheng-Prusoff, n.a. = not active, <80% inhibition at 20 µM
T1 construct: purchased Sigma Aldrich
Experimental: The inhibitory activity of the synthesized compounds towards the respective main- and off-target proteases was measured via fluorometric and colorimetric assays. Thus, fluorogenic AMC- or colorimetric pNA-based substrates with a peptide sequence suitable for the tested protease were utilized (see Supplementary Figure S2). At first, the compounds were screened against […] proteases (uPA, TMPRSS2, matriptase, tPA, thrombin, factor Xa) at 20 µM, and a cut-off value of 80% inhibition at this concentration was set, for the differentiation between nonactive (n.a.) and active inhibitors. Due to the reversible inhibition mechanism of the ketobenzothiazole derivates, the IC50 values were determined with Graphpad Prism 9, and afterwards converted to the corresponding Ki values for an adequate comparison between the inhibitory activities of the compounds toward all tested proteases. The Ki values were calculated using the Cheng–Prusoff equation [43].
Fluorometric inhibition assays
The inhibitory activities of the compounds against the proteases were determined by enzyme inhibition assays with fluorogenic or colorimetry-based substrates. The fluorescence, caused by cleaved AMC from the fluorogenic substrates (uPA, matriptase, TMPRSS2, thrombin), was measured in white flat-bottom 96-well plates from Greiner Bio-One using a Tecan Infinite F200 Pro plate reader. The absorption, caused by cleaved pNA from colorimetric substrates (factor Xa and tPA), was measured in transparent flat-bottom 96-well plates from Greiner Bio-One using a Tecan Spark 10M plate reader. All measurements with the main-target proteases (uPA and TMRPSS2) were performed as triplicates and with the off-target proteases (matriptase, factor Xa, tPA, thrombin) as duplicates. The substrates and the compounds were prepared as stock solutions in DMSO. Each well contained a total volume of 200 µL, consisting of 185 µL buffer, 5 µL inhibitor in DMSO or pure DMSO as negative control, 5 µL substrate in DMSO and 5 µL enzyme solution in buffer. Dilution series were prepared for the determination of the inhibition constants. The fluorescence signal and absorbance were measured every 30 s for 10 min at 25 or 37 °C with the corresponding excitation/emission (λex = 380 nm / λem = 460 nm) and absorbance (λabs = 405 nm) wavelengths, depending on the targeted protease. IC50 values for the reversible inhibitors were calculated with Graphpad Prism 9 by fitting the remaining enzymatic activity to the four parameter IC50 equation with Y [%] as the residual enzyme activity , Ymax as the maximum value of the dose response curve at inhibitor concentrations [I] = 0 µM, Ymin as the minimum value at high inhibitor concentrations and s as the hill coefficient.[1] The fluorescence progress curves and sigmoidal dose-response curve for inhibition of uPa by compound 38 is shown exemplary in Figure S2.
Figure S2: (left) Fluorescence progress curves for inhibition of uPa by cpd. 38. (right) Plot showing the respective IC50 value […]
Due to the dependence of the IC50 value on the substrate affinity and concentration, the Ki values were calculated with the Cheng-Prusoff equation, using the final substrate concentration [S] and the Michaelis-Menten constant KM, (2) for appropriate comparison of the inhibitory activities to the other enzymes and inhibitors.[1]
KM values were determined by fitting to the Michaelis-Menten equation using Graphpad Prism 9 with v [ΔF/min] as the substrate hydrolysis rate, vmax as the maximum slope of the dose-response curve, and the substrate [S] concentration.[1] The different substrates were serially diluted in DMSO. The measurement was done in analogy to the determination of the inhibitory activity, but with 5 µL pure DMSO instead of inhibitor solution. The fluorescence progress curves and Michaelis-Menten curve of the specific substrate of uPA is shown exemplarily […]
Figure S3: (left) Fluorescence progress curves of cleavage of Z-Gly-Gly-Arg-AMC by uPA. (right) Michaelis-Menten curve […]

[1] = Parallel Artificial Membrane Permeation Assay (PAMPA); format: in vitro ADME; conditions: TRIS 50 mM pH 7.4, 5% DMSO, 7 h at room temperature
Text: Following the envisioned applications of the presented inhibitors as drug leads for the treatment of cancer or viral infections, cell permeability is an important factor in the characterization process. […] However, in the organismic contexts of oral bioavailability (facilitated application) and biodistribution (reaching target tissue), adequate permeation is an important quality. To assess this characteristic, PAMPA was used as a suitable model for passive permeation.
Figure S5: Stability analyses of a representative set of inhibitors. The depictions consist of compound structure and number, then analysis at t0, then analysis after 7 h at room temperature, then analysis after 12 h at 37 °C. […]
Incubation setup was assembled and left for 7 h at room temperature. Reference solutions were prepared by simply mixing the indicated volumes of donor and acceptor solutions at the start of the incubation period and analyzed later with the acceptor solutions. […]
Measurement setup for spectroscopy consisted of UV-transparent measurement plate (Greiner UV-Star®, 655801), Tecan Spark 10M® well plate reader, 200 µL sample volume, λ = 200–650 nm. […]
Measurement setup for LC/MS consisted of Agilent 1100 series HPLC system coupled to an Agilent 1100 series LC/MSD Trap with electron spray ionization (ESI). […] Retention time and mass spectrum recorded in positive ionization mode were used to assign species. […]

SMILES | Ki (uPA) [nM] | Selectivity index [SI] uPA (uPA; quotient Ki uPA / Ki TMPRSS2) | PAMPA permeability Pe [1] | Papp at 7 h ([1]; PAMPA, read-out: PAMPA permeability Pe) [×10⁻⁶ cm/s]
CC(=O)N[C@@H](Cc1ccccc1)C(=O)N[C@@H](Cc1ccc(NC(=N)N)cc1)C(=O)c1nc2ccccc2s1 [Compound 33] | 5260 ± 922 | 1052 | not enough to exert measurable permeability | 
CC(=O)NCC(=O)NC(C(=O)NC(C)C(=O)NC(CC1CCC(NC(=N)N)CC1)C(=O)c1nc2ccccc2s1)C(C)O (centres unmarked) [Compound 38] | 39 ± 5 |  |  | < 1

— paper PMC10855164, “Ligand-Based Design of Selective Peptidomimetic uPA and TMPRSS2 Inhibitors with Arg Bioisosteres” (International Journal of Molecular Sciences, 2024)
